Assay results reported in the supplement of paper PMC11451515.

Tested on: NOMO1
Assay: cell viability relative to DMSO control; higher = less cytotoxic
Settings: 48 h
Method in brief: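 Viability was expressed as a per-plate percentage of DMSO wells, with cell-free wells as background. Leukemia cells (NOMO1 or SEM at 500 cells/well, P12-Ichikawa at 1000 cells/well) were adapted for at least four passages in each medium and seeded in 1536-well plates (5 μl). Library compounds in DMSO were pin-dosed over an 11-point threefold series from 47 μM to 0.79 nM, and CellTiter-Glo One luminescence was read after 48 h at 37°C.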

[1] = HPLM + 10% dialyzed FBS, 0.000781 µM
[2] = HPLM + 10% dialyzed FBS, 0.00234 µM
[3] = HPLM + 10% dialyzed FBS, 0.00702 µM
[4] = HPLM + 10% dialyzed FBS, 0.0211 µM
[5] = HPLM + 10% dialyzed FBS, 0.0632 µM
[6] = HPLM + 10% dialyzed FBS, 0.19 µM
[7] = HPLM + 10% dialyzed FBS, 0.569 µM
[8] = HPLM + 10% dialyzed FBS, 1.71 µM
[9] = HPLM + 10% dialyzed FBS, 5.12 µM
[10] = HPLM + 10% dialyzed FBS, 15.4 µM
[11] = HPLM + 10% dialyzed FBS, 46.1 µM
[12] = RPMI 5 mM glucose + 10% FBS, 0.000781 µM
[13] = RPMI 5 mM glucose + 10% FBS, 0.00234 µM
[14] = RPMI 5 mM glucose + 10% FBS, 0.00702 µM
[15] = RPMI 5 mM glucose + 10% FBS, 0.0211 µM
[16] = RPMI 5 mM glucose + 10% FBS, 0.0632 µM
[17] = RPMI 5 mM glucose + 10% FBS, 0.19 µM
[18] = RPMI 5 mM glucose + 10% FBS, 0.569 µM
[19] = RPMI 5 mM glucose + 10% FBS, 1.71 µM
[20] = RPMI 5 mM glucose + 10% FBS, 5.12 µM
[21] = RPMI 5 mM glucose + 10% FBS, 15.4 µM
[22] = RPMI 5 mM glucose + 10% FBS, 46.1 µM
[23] = RPMI 5 mM glucose + 10% dialyzed FBS, 0.000781 µM
[24] = RPMI 5 mM glucose + 10% dialyzed FBS, 0.00234 µM
[25] = RPMI 5 mM glucose + 10% dialyzed FBS, 0.00702 µM
[26] = RPMI 5 mM glucose + 10% dialyzed FBS, 0.0211 µM
[27] = RPMI 5 mM glucose + 10% dialyzed FBS, 0.0632 µM
[28] = RPMI 5 mM glucose + 10% dialyzed FBS, 0.19 µM
[29] = RPMI 5 mM glucose + 10% dialyzed FBS, 0.569 µM
[30] = RPMI 5 mM glucose + 10% dialyzed FBS, 1.71 µM
[31] = RPMI 5 mM glucose + 10% dialyzed FBS, 5.12 µM
[32] = RPMI 5 mM glucose + 10% dialyzed FBS, 15.4 µM
[33] = RPMI 5 mM glucose + 10% dialyzed FBS, 46.1 µM

SMILES: C1CN\2C[C@@H](\N=C2S1)C3=CC=CC=C3
- cell viability [1]: 101%
- cell viability [2]: 98.4%
- cell viability [3]: 103%
- cell viability [4]: 96.9%
- cell viability [5]: 104%
- cell viability [6]: 114%
- cell viability [7]: 102%
- cell viability [8]: 94.8%
- cell viability [9]: 91.3%
- cell viability [10]: 97.7%
- cell viability [11]: 60.3%
- cell viability [12]: 87.9%
- cell viability [13]: 88.6%
- cell viability [14]: 90.1%
- cell viability [15]: 90.2%
- cell viability [16]: 104%
- cell viability [17]: 88.5%
- cell viability [18]: 89.5%
- cell viability [19]: 90.8%
- cell viability [20]: 95.8%
- cell viability [21]: 91%
- cell viability [22]: 103%
- cell viability [23]: 87.6%
- cell viability [24]: 88.8%
- cell viability [25]: 85.3%
- cell viability [26]: 90.5%
- cell viability [27]: 93.3%
- cell viability [28]: 88.5%
- cell viability [29]: 86.8%
- cell viability [30]: 99.9%
- cell viability [31]: 84%
- cell viability [32]: 93%
- cell viability [33]: 91.7%

SMILES: Cc1ccc(-c2cc(C(F)(F)F)nn2-c2ccc([S+](N)(=O)[O-])cc2)cc1
- cell viability [12]: 115%
- cell viability [13]: 122%
- cell viability [14]: 110%
- cell viability [15]: 126%
- cell viability [16]: 126%
- cell viability [17]: 114%
- cell viability [18]: 115%
- cell viability [19]: 112%
- cell viability [20]: 112%
- cell viability [21]: 128%
- cell viability [22]: 103%
- cell viability [23]: 121%
- cell viability [24]: 119%
- cell viability [25]: 121%
- cell viability [26]: 118%
- cell viability [27]: 107%
- cell viability [28]: 110%
- cell viability [29]: 117%
- cell viability [30]: 121%
- cell viability [31]: 104%
- cell viability [32]: 109%
- cell viability [33]: 92.7%

SMILES: CN(C)[C@@H](CCOc1cccc2ccccc12)c1ccccc1
- cell viability [1]: 110%
- cell viability [2]: 117%
- cell viability [3]: 129%
- cell viability [4]: 103%
- cell viability [5]: 124%
- cell viability [6]: 114%
- cell viability [7]: 110%
- cell viability [8]: 97.5%
- cell viability [9]: 86.4%
- cell viability [10]: 106%
- cell viability [11]: 70.6%
- cell viability [12]: 105%
- cell viability [13]: 112%
- cell viability [14]: 106%
- cell viability [15]: 109%
- cell viability [16]: 119%
- cell viability [17]: 106%
- cell viability [18]: 110%
- cell viability [19]: 113%
- cell viability [20]: 99.8%
- cell viability [21]: 98.4%
- cell viability [22]: 68.9%
- cell viability [23]: 113%
- cell viability [24]: 114%
- cell viability [25]: 114%
- cell viability [26]: 111%
- cell viability [27]: 106%
- cell viability [28]: 99%
- cell viability [29]: 119%
- cell viability [30]: 113%
- cell viability [31]: 114%
- cell viability [32]: 92.7%
- cell viability [33]: 52.1%

SMILES: C[C@H](Cc1ccc(O)c(O)c1)[C@@H](C)Cc1ccc(O)c(O)c1
- cell viability [1]: 130%
- cell viability [2]: 119%
- cell viability [3]: 118%
- cell viability [4]: 117%
- cell viability [5]: 126%
- cell viability [6]: 133%
- cell viability [7]: 134%
- cell viability [8]: 132%
- cell viability [9]: 42%
- cell viability [10]: 99.6%
- cell viability [11]: 18.4%
- cell viability [12]: 141%
- cell viability [13]: 114%
- cell viability [14]: 112%
- cell viability [15]: 122%
- cell viability [16]: 117%
- cell viability [17]: 109%
- cell viability [18]: 119%
- cell viability [19]: 114%
- cell viability [20]: 111%
- cell viability [21]: 104%
- cell viability [22]: 57.5%
- cell viability [23]: 119%
- cell viability [24]: 121%
- cell viability [25]: 124%
- cell viability [26]: 107%
- cell viability [27]: 104%
- cell viability [28]: 114%
- cell viability [29]: 113%
- cell viability [30]: 111%
- cell viability [31]: 57%
- cell viability [32]: 94.1%
- cell viability [33]: 27.9%

SMILES: Cc1ccc(/C=N/NC(=O)c2ccccc2Oc2ccccc2)o1
- cell viability [1]: 102%
- cell viability [2]: 100%
- cell viability [3]: 104%
- cell viability [4]: 97.7%
- cell viability [5]: 101%
- cell viability [6]: 102%
- cell viability [7]: 104%
- cell viability [8]: 91.3%
- cell viability [9]: 98%
- cell viability [10]: 81.5%
- cell viability [11]: 69.6%
- cell viability [12]: 102%
- cell viability [13]: 96.4%
- cell viability [14]: 97.2%
- cell viability [15]: 88.7%
- cell viability [16]: 86.7%
- cell viability [17]: 91.2%
- cell viability [18]: 88%
- cell viability [19]: 80.4%
- cell viability [20]: 83.5%
- cell viability [21]: 83.3%
- cell viability [22]: 80.9%
- cell viability [23]: 98.9%
- cell viability [24]: 96.3%
- cell viability [25]: 95.1%
- cell viability [26]: 89.4%
- cell viability [27]: 113%
- cell viability [28]: 101%
- cell viability [29]: 95.6%
- cell viability [30]: 96.3%
- cell viability [31]: 85.9%
- cell viability [32]: 96.9%
- cell viability [33]: 86.3%

SMILES: CC[C@@H]1C(=O)N(C)c2cnc(Nc3ccc(C(=O)NC4CCN(C)CC4)cc3OC)nc2N1C1CCCC1
- cell viability [1]: 125%
- cell viability [2]: 115%
- cell viability [3]: 124%
- cell viability [4]: 118%
- cell viability [5]: 45.9%
- cell viability [6]: 43.7%
- cell viability [7]: 57.4%
- cell viability [8]: 46.6%
- cell viability [9]: 36.9%
- cell viability [10]: 21.5%
- cell viability [11]: 4.78%
- cell viability [12]: 117%
- cell viability [13]: 112%
- cell viability [14]: 116%
- cell viability [15]: 117%
- cell viability [16]: 68.9%
- cell viability [17]: 28.6%
- cell viability [18]: 24.5%
- cell viability [19]: 27.1%
- cell viability [20]: 22.9%
- cell viability [21]: 14.3%
- cell viability [22]: 5.11%
- cell viability [23]: 107%
- cell viability [24]: 121%
- cell viability [25]: 113%
- cell viability [26]: 117%
- cell viability [27]: 53.9%
- cell viability [28]: 30%
- cell viability [29]: 32.6%
- cell viability [30]: 39%
- cell viability [31]: 30.9%
- cell viability [32]: 21.8%
- cell viability [33]: 10.4%

SMILES: CN(C)CCc1c[nH]c2ccc(C[S+](=O)([O-])N3CCCC3)cc12
- cell viability [1]: 95.2%
- cell viability [2]: 118%
- cell viability [3]: 104%
- cell viability [4]: 109%
- cell viability [5]: 118%
- cell viability [6]: 113%
- cell viability [7]: 102%
- cell viability [8]: 125%
- cell viability [9]: 107%
- cell viability [10]: 96.2%
- cell viability [11]: 60.2%
- cell viability [12]: 96.7%
- cell viability [13]: 107%
- cell viability [14]: 97.1%
- cell viability [15]: 104%
- cell viability [16]: 123%
- cell viability [17]: 97.1%
- cell viability [18]: 99.3%
- cell viability [19]: 98.5%
- cell viability [20]: 96.4%
- cell viability [21]: 97.6%
- cell viability [22]: 72.2%
- cell viability [23]: 99.5%
- cell viability [24]: 95.8%
- cell viability [25]: 113%
- cell viability [26]: 103%
- cell viability [27]: 106%
- cell viability [28]: 109%
- cell viability [29]: 115%
- cell viability [30]: 102%
- cell viability [31]: 106%
- cell viability [32]: 92%
- cell viability [33]: 58.8%

SMILES: N=C(N)Nc1ccc(C(=O)Oc2ccc3cc(C(=N)N)ccc3c2)cc1
- cell viability [1]: 96.3%
- cell viability [2]: 103%
- cell viability [3]: 100%
- cell viability [4]: 100%
- cell viability [5]: 101%
- cell viability [6]: 95.6%
- cell viability [7]: 93.5%
- cell viability [8]: 100%
- cell viability [9]: 81.1%
- cell viability [10]: 89.6%
- cell viability [11]: 48%
- cell viability [12]: 93.7%
- cell viability [13]: 84.8%
- cell viability [14]: 83.5%
- cell viability [15]: 86.6%
- cell viability [16]: 90.8%
- cell viability [17]: 86%
- cell viability [18]: 90.7%
- cell viability [19]: 89.8%
- cell viability [20]: 90.5%
- cell viability [21]: 73.3%
- cell viability [22]: 50.6%
- cell viability [23]: 86%
- cell viability [24]: 85.3%
- cell viability [25]: 78.6%
- cell viability [26]: 90.4%
- cell viability [27]: 95.3%
- cell viability [28]: 92.4%
- cell viability [29]: 79.4%
- cell viability [30]: 83.7%
- cell viability [31]: 88.7%
- cell viability [32]: 70.5%
- cell viability [33]: 45.3%
